{"source": "paper PMC9898036", "about": "“VIP152 is a selective CDK9 inhibitor with pre-clinical in vitro and in vivo efficacy in chronic lymphocytic leukemia” (Leukemia, 2022)", "key": {"[1]": {"target": "ACVR2A (Homo sapiens, UniProt P27037)", "sequence (P27037 20-513)": "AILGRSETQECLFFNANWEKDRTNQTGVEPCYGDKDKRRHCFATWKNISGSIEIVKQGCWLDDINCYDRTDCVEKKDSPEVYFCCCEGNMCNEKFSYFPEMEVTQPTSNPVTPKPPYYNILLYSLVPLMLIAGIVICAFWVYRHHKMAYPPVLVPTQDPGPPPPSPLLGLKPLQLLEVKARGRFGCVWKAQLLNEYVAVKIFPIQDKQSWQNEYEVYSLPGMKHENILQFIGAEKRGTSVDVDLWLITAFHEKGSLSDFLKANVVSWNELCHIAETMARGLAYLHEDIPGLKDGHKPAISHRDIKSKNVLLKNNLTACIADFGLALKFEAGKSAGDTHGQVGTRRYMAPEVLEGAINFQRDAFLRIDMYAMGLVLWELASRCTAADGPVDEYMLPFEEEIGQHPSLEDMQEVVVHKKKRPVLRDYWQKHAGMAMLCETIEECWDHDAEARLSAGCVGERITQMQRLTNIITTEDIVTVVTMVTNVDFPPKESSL", "assay": "KINOMEscan: ACVR2A", "format": "binding", "settings": "1000 nM, read-out: Percent Control"}, "[2]": {"target": "AKT3 (Homo sapiens, UniProt Q9Y243)", "sequence (Q9Y243 whole entry)": "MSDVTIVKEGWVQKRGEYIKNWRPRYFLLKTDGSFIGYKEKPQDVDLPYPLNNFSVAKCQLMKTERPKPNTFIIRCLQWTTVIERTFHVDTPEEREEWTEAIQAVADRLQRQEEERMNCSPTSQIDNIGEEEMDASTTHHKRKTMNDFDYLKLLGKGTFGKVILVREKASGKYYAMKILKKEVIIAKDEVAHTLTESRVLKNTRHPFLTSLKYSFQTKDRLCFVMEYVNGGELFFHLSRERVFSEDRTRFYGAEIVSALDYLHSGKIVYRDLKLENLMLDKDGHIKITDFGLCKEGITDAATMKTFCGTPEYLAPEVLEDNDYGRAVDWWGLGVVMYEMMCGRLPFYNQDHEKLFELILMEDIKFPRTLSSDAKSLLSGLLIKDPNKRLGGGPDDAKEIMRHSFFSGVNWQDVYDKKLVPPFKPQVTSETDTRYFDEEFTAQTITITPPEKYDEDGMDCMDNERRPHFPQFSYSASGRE", "assay": "KINOMEscan: AKT3", "format": "binding", "settings": "1000 nM, read-out: Percent Control"}, "[3]": {"system": "HG-3 and MEC-1 cell lines", "assay": "Western blot of treated CLL cell lines", "format": "cell-based, human"}, "[4]": {"target": "GRK2 (Homo sapiens, UniProt P25098)", "sequence (P25098 whole entry)": "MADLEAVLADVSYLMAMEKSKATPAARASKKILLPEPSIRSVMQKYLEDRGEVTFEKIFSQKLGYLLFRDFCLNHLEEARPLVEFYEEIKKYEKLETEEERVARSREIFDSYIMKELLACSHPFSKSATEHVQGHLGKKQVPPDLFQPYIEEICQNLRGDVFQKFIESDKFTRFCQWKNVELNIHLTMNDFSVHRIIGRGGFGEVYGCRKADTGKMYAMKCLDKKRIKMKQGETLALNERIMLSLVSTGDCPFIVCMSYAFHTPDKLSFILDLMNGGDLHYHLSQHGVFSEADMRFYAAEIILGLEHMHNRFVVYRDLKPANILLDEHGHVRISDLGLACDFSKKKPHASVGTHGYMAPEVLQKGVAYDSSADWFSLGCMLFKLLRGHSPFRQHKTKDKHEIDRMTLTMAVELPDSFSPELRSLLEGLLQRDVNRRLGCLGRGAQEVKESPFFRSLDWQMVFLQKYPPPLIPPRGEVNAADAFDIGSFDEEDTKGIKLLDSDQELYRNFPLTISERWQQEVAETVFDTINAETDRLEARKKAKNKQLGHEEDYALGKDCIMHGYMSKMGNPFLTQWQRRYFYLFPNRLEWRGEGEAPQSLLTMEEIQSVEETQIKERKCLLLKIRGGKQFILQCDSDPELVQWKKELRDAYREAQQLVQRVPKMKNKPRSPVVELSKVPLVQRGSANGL", "assay": "KINOMEscan: GRK2", "format": "binding", "settings": "1000 nM, read-out: Percent Control"}, "[5]": {"target": "MAP4K3 (Homo sapiens, UniProt Q8IVH8)", "sequence (Q8IVH8 whole entry)": "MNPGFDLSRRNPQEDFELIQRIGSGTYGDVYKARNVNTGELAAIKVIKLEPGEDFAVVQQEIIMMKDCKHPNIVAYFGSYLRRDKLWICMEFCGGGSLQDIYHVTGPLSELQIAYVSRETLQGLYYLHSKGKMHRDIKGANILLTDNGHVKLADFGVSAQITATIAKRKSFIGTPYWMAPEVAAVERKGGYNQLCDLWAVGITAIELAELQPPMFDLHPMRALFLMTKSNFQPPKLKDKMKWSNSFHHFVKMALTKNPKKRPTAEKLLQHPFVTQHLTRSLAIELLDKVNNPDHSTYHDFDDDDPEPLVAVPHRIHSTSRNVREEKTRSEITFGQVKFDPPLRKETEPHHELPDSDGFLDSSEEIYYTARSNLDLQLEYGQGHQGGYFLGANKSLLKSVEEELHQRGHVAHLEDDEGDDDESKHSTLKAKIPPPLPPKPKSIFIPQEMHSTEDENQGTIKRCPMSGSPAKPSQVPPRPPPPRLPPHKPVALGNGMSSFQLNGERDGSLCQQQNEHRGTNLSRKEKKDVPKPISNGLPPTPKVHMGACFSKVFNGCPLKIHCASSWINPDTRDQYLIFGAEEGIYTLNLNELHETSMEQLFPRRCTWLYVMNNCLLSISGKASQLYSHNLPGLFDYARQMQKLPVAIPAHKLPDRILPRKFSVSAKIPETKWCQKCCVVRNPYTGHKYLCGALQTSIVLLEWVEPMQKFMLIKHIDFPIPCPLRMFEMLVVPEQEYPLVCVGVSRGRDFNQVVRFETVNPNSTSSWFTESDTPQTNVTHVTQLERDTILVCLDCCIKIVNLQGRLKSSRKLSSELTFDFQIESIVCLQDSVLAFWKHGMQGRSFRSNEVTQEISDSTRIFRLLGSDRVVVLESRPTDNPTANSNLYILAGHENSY", "assay": "KINOMEscan: MAP4K3", "format": "binding", "settings": "1000 nM, read-out: Percent Control"}, "[6]": {"target": "DAPK2 (Homo sapiens, UniProt Q9UIK4)", "sequence (Q9UIK4 whole entry)": "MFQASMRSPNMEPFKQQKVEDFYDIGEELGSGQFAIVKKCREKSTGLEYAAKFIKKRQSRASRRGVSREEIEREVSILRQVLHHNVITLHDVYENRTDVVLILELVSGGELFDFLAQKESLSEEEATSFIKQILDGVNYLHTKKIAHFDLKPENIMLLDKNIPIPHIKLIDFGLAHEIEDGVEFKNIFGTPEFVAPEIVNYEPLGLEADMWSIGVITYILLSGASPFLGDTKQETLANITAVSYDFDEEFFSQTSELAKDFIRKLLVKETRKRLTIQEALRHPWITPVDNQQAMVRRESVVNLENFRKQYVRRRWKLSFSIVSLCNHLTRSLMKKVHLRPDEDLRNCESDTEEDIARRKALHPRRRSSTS", "assay": "KINOMEscan: DAPK2", "format": "binding", "settings": "1000 nM, read-out: Percent Control"}, "[7]": {"system": "HG-3 cell line", "assay": "Nuclear CDK9 co-immunoprecipitation (LC-MS/MS proteomics, western blot)", "format": "cell-based, human", "experimental": "HG-3 cell line was treated with 1 µM VIP152 or DMSO for 2 h; nuclei were isolated using the Nuclear Complex Co-IP Kit (Active Motif) according to the manufacturer’s protocol. Nuclear lysate was immunoprecipitated using a CDK9 antibody (ab239364 - Abcam) or isotype control (3900 S – Cell Signaling Technology) with Dynabeads™ Protein G Immunoprecipitation Kit (10007D – ThermoFisher Scientific). Beads were submitted for proteomics to the Ohio State University Proteomics Center at the Campus Chemical Instrument Center. Full proteomic methods are available in the supplementary methods section.\nHaving observed the transcriptomic effects of VIP152 inhibition, we hypothesized a change in the P-TEFb complex would occur validating the mechanism of this agent. Previously, Dow et al. described changes in P-TEFb nuclear complexes with flavopiridol treatment; specifically, they observed loss of nuclear speckles of P-TEFb complexes containing HEXIM1, a major component of the 7SK-RNA complex that inhibits P-TEFb. We observed an increase in the 42 kDa and 55 kDa isoforms of CDK9, as well as Cyclin T1, in the nuclear fraction following treatment (Fig. 4A, B). […] Next, a nuclear immunoprecipitation of CDK9 after a two-hour drugging in the HG-3 cell line (n = 3) was performed, followed by liquid chromatography with tandem mass spectrometry (LC-MS/MS). We detected 226 differentially co-localized proteins and again observed an enrichment in the treated fraction for P-TEFb (Fig. 4B, C). […] These findings were validated via western blot in the MEC-1 and HG-3 cell lines (Supplementary Fig. 9). […] Finally, to appreciate the effect of inhibition on the association with the inhibitory 7SK-RNA complex, we performed reciprocal nuclear co-immunoprecipitation of CDK9 and HEXIM1 (Fig. 4E and Supplementary Fig. 10). […] This decrease in 7SK association due to inhibition is consistent with other work characterizing the disruption of the 7SK complex as a result of cellular stresses.\nMSGF+ search engine against a reviewed UniProt human proteome (downloaded 12/07/2020) containing the cRAP and MaxQuant contaminant FASTAs32. Search parameters included: full trypsin digest, 1 missed cleavage, carbamidomethylation of cysteine as a fixed modification and oxidation of methionine as a variable modification with precursor and fragment mass tolerances of 10 ppm and 5 Da. PSM rescoring was performed with Percolator and protein inference was performed with Epifany across all samples, setting peptide and protein false discovery rates to 0.05. […]\nAll data analysis was performed with R (version 3.6.2) with various packages and is included in supplemental material (zipped File_S1). […] Data was quantile normalized, and significance (p-value < 0.05) determined by a modified exact test. […]"}, "[8]": {"target": "KIT(V559D) (Homo sapiens, UniProt P10721, V559D)", "sequence (P10721 26-976 V559D)": "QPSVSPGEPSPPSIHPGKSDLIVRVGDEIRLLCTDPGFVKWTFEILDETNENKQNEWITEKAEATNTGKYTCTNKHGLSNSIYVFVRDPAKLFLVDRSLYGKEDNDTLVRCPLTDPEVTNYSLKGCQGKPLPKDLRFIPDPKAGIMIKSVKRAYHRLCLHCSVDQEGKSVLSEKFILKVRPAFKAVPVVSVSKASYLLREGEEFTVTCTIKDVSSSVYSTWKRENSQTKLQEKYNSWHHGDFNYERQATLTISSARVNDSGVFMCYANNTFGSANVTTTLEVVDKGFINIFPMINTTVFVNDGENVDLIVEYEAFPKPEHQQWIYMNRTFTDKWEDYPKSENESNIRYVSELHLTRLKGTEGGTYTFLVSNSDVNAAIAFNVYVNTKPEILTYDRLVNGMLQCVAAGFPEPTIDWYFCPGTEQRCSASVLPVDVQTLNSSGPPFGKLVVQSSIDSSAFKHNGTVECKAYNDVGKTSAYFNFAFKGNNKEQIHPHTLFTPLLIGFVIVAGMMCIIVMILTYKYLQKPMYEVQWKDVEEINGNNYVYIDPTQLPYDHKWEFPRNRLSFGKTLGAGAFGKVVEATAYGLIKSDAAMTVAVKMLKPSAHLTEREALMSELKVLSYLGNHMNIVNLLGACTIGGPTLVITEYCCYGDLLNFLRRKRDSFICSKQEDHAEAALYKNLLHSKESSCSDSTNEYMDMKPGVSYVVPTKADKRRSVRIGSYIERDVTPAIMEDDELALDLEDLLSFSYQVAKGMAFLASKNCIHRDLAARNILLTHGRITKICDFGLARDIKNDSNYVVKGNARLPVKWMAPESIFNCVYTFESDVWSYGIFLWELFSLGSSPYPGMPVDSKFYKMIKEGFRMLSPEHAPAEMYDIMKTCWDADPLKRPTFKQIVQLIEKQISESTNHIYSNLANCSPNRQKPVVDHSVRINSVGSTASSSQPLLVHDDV", "assay": "KINOMEscan: KIT(V559D)", "format": "binding", "settings": "1000 nM, read-out: Percent Control"}, "[9]": {"target": "MAP3K3 (Homo sapiens, UniProt Q99759)", "sequence (Q99759 whole entry)": "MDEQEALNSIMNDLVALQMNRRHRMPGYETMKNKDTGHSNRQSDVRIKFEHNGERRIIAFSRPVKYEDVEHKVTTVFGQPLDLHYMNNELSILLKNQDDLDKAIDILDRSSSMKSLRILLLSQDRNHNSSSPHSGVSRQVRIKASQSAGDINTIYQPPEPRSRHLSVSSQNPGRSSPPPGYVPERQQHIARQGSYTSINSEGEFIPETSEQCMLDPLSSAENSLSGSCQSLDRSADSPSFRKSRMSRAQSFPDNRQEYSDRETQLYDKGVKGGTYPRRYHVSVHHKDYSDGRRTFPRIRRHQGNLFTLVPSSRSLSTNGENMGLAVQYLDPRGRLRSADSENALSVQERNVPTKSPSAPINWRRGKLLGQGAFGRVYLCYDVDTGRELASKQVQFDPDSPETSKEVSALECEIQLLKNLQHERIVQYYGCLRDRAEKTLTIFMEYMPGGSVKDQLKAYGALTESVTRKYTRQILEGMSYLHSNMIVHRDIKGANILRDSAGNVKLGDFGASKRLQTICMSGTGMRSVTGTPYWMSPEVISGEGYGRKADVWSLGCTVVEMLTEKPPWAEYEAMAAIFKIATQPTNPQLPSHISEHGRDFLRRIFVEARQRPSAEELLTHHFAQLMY", "assay": "KINOMEscan: MAP3K3", "format": "binding", "settings": "1000 nM, read-out: Percent Control"}, "[10]": {"target": "CAMKK1 (Homo sapiens, UniProt Q8N5S9)", "sequence (Q8N5S9 whole entry)": "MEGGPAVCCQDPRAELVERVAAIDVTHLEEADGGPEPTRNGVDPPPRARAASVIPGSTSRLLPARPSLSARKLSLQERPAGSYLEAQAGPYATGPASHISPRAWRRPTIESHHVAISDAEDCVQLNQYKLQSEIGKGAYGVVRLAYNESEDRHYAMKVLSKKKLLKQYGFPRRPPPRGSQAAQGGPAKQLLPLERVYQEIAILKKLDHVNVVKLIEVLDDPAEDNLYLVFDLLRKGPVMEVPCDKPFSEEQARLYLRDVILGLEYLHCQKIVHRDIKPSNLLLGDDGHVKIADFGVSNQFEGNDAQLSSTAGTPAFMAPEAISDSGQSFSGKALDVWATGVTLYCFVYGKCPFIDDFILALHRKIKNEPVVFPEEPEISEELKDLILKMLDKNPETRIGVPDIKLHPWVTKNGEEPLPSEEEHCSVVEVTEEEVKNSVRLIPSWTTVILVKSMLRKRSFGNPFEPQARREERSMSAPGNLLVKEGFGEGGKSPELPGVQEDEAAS", "assay": "KINOMEscan: CAMKK1", "format": "binding", "settings": "1000 nM, read-out: Percent Control"}}}
{"smiles": "COc1cc(F)ccc1-c1cc(Nc2cc(CS(C)(=N)=O)ccn2)ncc1F", "note": "(stereo not drawn) [VIP152]", "values": [{"measurement": "remaining binding at 1 µM", "setting": "[1]", "result": 75, "unit": "%"}, {"measurement": "remaining binding at 1 µM", "setting": "[2]", "result": 98, "unit": "%"}, {"measurement": "MCL1 protein levels", "setting": "[3]; 0.1 µM, 8 h", "result": "decreased"}, {"measurement": "Phosphorylation of serine 5 (marker of CDK7 activity)", "setting": "[3]; 0.1 µM, 8 h", "result": "not diminished"}, {"measurement": "glycogen synthase phosphorylation at serine 641 (marker of GSK3α/β activity)", "setting": "[3]; 0.1 µM, 8 h", "result": "did not observe a decrease"}, {"measurement": "phospho-serine 2 (pS2) of RNA Polymerase II", "setting": "[3]; 0.1 µM, 8 h", "result": "decrease"}, {"measurement": "MCL1", "setting": "[3]; 1 µM, across 24 h", "result": "decreased"}, {"measurement": "c-MYC", "setting": "[3]; 1 µM, across 24 h", "result": "decreased"}, {"measurement": "pS2", "setting": "[3]; 1 µM, across 24 h", "result": "decreased"}, {"measurement": "pS5", "setting": "[3]; 1 µM, across 24 h", "result": "minimal change"}, {"measurement": "PARP cleavage (induction of apoptosis)", "setting": "[3]; beginning at six hours", "result": "detect PARP cleavage"}, {"measurement": "remaining binding at 1 µM", "setting": "[4]", "result": 98, "unit": "%"}, {"measurement": "remaining binding at 1 µM", "setting": "[5]", "result": 57, "unit": "%"}, {"measurement": "remaining binding at 1 µM", "setting": "[6]", "result": 89, "unit": "%"}, {"measurement": "association with transcription-associated machinery (SPT6H and IWS1) and RPB3", "setting": "[7]; 1 µM, 2 h, nuclear IP of CDK9", "result": "decreased association"}, {"measurement": "differentially co-localized proteins", "setting": "[7]; 1 µM, 2 h, nuclear IP of CDK9, LC-MS/MS", "result": 226}, {"measurement": "association with DDX21, Fold Change", "setting": "[7]; 1 µM, 2 h, nuclear IP of CDK9, proteomics", "result": 1.47}, {"measurement": "association of CDK9 with 7SK-RNA complex components (HEXIM1, MEPCE, LARP7)", "setting": "[7]; HG-3 and MEC-1, reciprocal nuclear co-immunoprecipitation of CDK9 and HEXIM1", "result": "decreased association"}, {"measurement": "remaining binding at 1 µM", "setting": "[8]", "result": 82, "unit": "%"}, {"measurement": "remaining binding at 1 µM", "setting": "[9]", "result": 86, "unit": "%"}, {"measurement": "remaining binding at 1 µM", "setting": "[10]", "result": 13, "unit": "%"}]}
